Tests used:
[1] = test system: control sera (pooled serum of ten healthy LUMC hospital workers; commercial negative donor pooled serum from the Dutch bloodbank); assay type: binding, human; parameters: Binding of Control serum LUMC to linear peptides / Binding of Control serum Blood-bank to linear peptides / Binding of Control serum LUMC to looped peptides / Binding of Control Serum Blood-Bank to Looped peptides / Binding of Control serum LUMC to linear peptides of the protein M of SARS-CoV Urbani / Binding of Control serum Blood-bank to linear peptides of the protein M of SARS-CoV Urbani / Binding of Control serum LUMC to looped peptides of the protein M of SARS-CoV Urbani / Binding of Control Serum Blood-Bank to Looped peptides of the protein M of SARS-CoV Urbani: unit not given here
[2] = test system: rabbit serum obtained by immunizing a rabbit with the SARS-CoV strain Frankfurt 1; assay type: binding; parameters: Binding of a rabbit serum to linear peptides / Binding of a rabbit serum to looped peptides / Rabbit serum linear peptides / Rabbit serum looped peptides / Binding of a rabbit serum to linear peptides of protein N of SARS-CoV Urbani (Rabbit serum linear peptides) / Binding of a rabbit serum to looped/cyclic peptides of protein N of SARS-CoV Urbani (Rabbit serum looped peptides): unit not given here

| Sequence | Binding of Control Serum Blood-Bank to Looped peptides [1] | Binding of Control serum Blood-bank to linear peptides [1] | Binding of Control serum LUMC to linear peptides [1] | Binding of Control serum LUMC to looped peptides [1] | Rabbit serum linear peptides [2] | Rabbit serum looped peptides [2] | Binding of a rabbit serum to linear peptides [2] | Binding of a rabbit serum to looped peptides [2] | other results |
| --- | --- | --- | --- | --- | --- | --- | --- | --- | --- |
| NVTINCQDPAGGALI | 0.7 | 0.8 | 0.6 | 0.7 | 0.6 | 0.5 |  |  |  |
| TINCQDPAGGALIAR | 1.3 | 1.0 | 0.6 | 1.0 | 0.6 | 0.7 |  |  |  |
| YKLNTDHAGSNDNIA |  |  |  |  | 0.1 | 0.1 |  |  | Binding of Control Serum Blood-Bank to Looped peptides of the protein M of SARS-CoV Urbani [1]: 0.6; Binding of Control serum Blood-bank to linear peptides of the protein M of SARS-CoV Urbani [1]: 0.6; Binding of Control serum LUMC to linear peptides of the protein M of SARS-CoV Urbani [1]: 0.7; Binding of Control serum LUMC to looped peptides of the protein M of SARS-CoV Urbani [1]: 0.6 |
| PAMDPIYDEPTTTTS | 0.5 | 0.4 | 0.4 | 0.4 |  |  | 0.1 | 0.4 |  |
| NCQDPAGGALIARCW | 0.8 | 0.6 | 0.3 | 0.6 | 0.5 | 0.5 |  |  |  |
| LKEDYQIGGYSEDRH | 0.4 | 0.5 | 0.5 | 0.5 |  |  | 0.1 | 0.7 |  |
| NKLVKDPPNVQIHTI | 0.8 | 1.0 | 0.9 | 0.9 |  |  | 0.1 | 0.6 |  |
| MRTFRIAIWNLDVII |  |  |  |  | 0.3 | 0.4 |  |  | Binding of Control Serum Blood-Bank to Looped peptides of the protein X3 of SARS-CoV Urbani [1]: 0.8; Binding of Control serum Blood-bank to linear peptides of the protein X3 of SARS-CoV Urbani [1]: 0.7; Binding of Control serum LUMC to linear peptides of the protein X3 of SARS-CoV Urbani [1]: 0.6; Binding of Control serum LUMC to looped peptides of the protein X3 of SARS-CoV Urbani [1]: 0.8 |
| SGTYEGNSPFHPLAD | 0.8 | 0.8 | 0.8 | 0.8 | 0.6 | 0.6 |  |  |  |
| RFFTLGSITAQPVKI | 0.8 | 1.0 | 1.1 | 0.7 |  |  | 1.7 | 0.5 |  |
| MADNGTITVEELKQL |  |  |  |  |  |  |  |  | Binding of Control Serum Blood-Bank to Looped peptides of the protein M of SARS-CoV Urbani [1]: 0.4; Binding of Control serum Blood-bank to linear peptides of the protein M of SARS-CoV Urbani [1]: 0.5; Binding of Control serum LUMC to linear peptides of the protein M of SARS-CoV Urbani [1]: 0.6; Binding of Control serum LUMC to looped peptides of the protein M of SARS-CoV Urbani [1]: 0.6; Recognition of the peptide by the rabbit serum [2]: recognized |
| VKIDNASPASTVHAT | 0.5 | 0.7 | 0.7 | 0.6 |  |  | 0.2 | 0.3 |  |
| VTGGIAIAMACIVGL |  |  |  |  | 0.3 | 0.4 |  |  | Binding of Control Serum Blood-Bank to Looped peptides of the protein M of SARS-CoV Urbani [1]: 0.7; Binding of Control serum Blood-bank to linear peptides of the protein M of SARS-CoV Urbani [1]: 1.1; Binding of Control serum LUMC to linear peptides of the protein M of SARS-CoV Urbani [1]: 1.3; Binding of Control serum LUMC to looped peptides of the protein M of SARS-CoV Urbani [1]: 0.8 |
| PVKIDNASPASTVHA | 0.7 | 0.7 | 0.5 | 0.9 |  |  | 0.1 | 0.4 |  |
| DYCIPYNSVTDTIVV | 0.7 | 0.7 | 0.6 | 0.9 |  |  | 0.1 | 0.5 |  |
| FKPLTKKNYSELDDE |  |  |  |  | 0.5 | 0.5 |  |  | Binding of Control Serum Blood-Bank to Looped peptides of the protein X3 of SARS-CoV Urbani [1]: 0.8; Binding of Control serum Blood-bank to linear peptides of the protein X3 of SARS-CoV Urbani [1]: 0.8; Binding of Control serum LUMC to linear peptides of the protein X3 of SARS-CoV Urbani [1]: 0.8; Binding of Control serum LUMC to looped peptides of the protein X3 of SARS-CoV Urbani [1]: 0.8 |

| Sequence | Binding of Control Serum Blood-Bank to Looped peptides [1] | Binding of Control serum Blood-bank to linear peptides [1] | Binding of Control serum LUMC to linear peptides [1] | Binding of Control serum LUMC to looped peptides [1] | Rabbit serum linear peptides [2] | Rabbit serum looped peptides [2] | Binding of a rabbit serum to linear peptides [2] | Binding of a rabbit serum to looped peptides [2] | other results |
| --- | --- | --- | --- | --- | --- | --- | --- | --- | --- |
| RGTTVLLKEPCPSGT | 0.9 | 0.9 | 0.8 | 0.8 | 0.4 | 0.5 |  |  |  |
| SGVANPAMDPIYDEP | 0.5 | 0.4 | 0.3 | 0.5 |  |  | 1.1 | 0.6 |  |
| FQHQNSKKTTKLVVI | 0.4 | 0.5 | 0.7 | 0.5 |  |  |  |  | Recognition of the peptide by the rabbit serum [2]: recognized |
| QECVRGTTVLLKEPC | 0.9 | 0.9 | 1.0 | 0.8 | 0.6 | 0.5 |  |  |  |
| GIAIAMACIVGLMWL |  |  |  |  | 0.3 | 0.1 |  |  | Binding of Control Serum Blood-Bank to Looped peptides of the protein M of SARS-CoV Urbani [1]: 0.7; Binding of Control serum Blood-bank to linear peptides of the protein M of SARS-CoV Urbani [1]: 0.8; Binding of Control serum LUMC to linear peptides of the protein M of SARS-CoV Urbani [1]: 0.5; Binding of Control serum LUMC to looped peptides of the protein M of SARS-CoV Urbani [1]: 0.8 |
| DNKFALTCTSTHFAF | 0.6 | 0.7 | 0.6 | 0.8 | 0.7 | 0.6 |  |  |  |
| SRVKNLNSSEGVPDL | 0.5 | 0.9 | 0.7 | 0.7 |  |  | 0.7 | 0.0 |  |
| TVLLKEPCPSGTYEG | 0.7 | 0.7 | 0.8 | 0.8 | 0.2 | 0.2 |  |  |  |
| GTYEGNSPFHPLADN | 0.9 | 0.7 | 0.8 | 0.7 | 0.6 | 0.5 |  |  |  |
| TDHAGSNDNIALLVQ |  |  |  |  | 0.1 | 0.2 |  |  | Binding of Control Serum Blood-Bank to Looped peptides of the protein M of SARS-CoV Urbani [1]: 1.0; Binding of Control serum Blood-bank to linear peptides of the protein M of SARS-CoV Urbani [1]: 0.7; Binding of Control serum LUMC to linear peptides of the protein M of SARS-CoV Urbani [1]: 1.0; Binding of Control serum LUMC to looped peptides of the protein M of SARS-CoV Urbani [1]: 1.0 |
| SITAQPVKIDNASPA | 0.4 | 0.6 | 0.6 | 0.4 |  |  | 0.1 | 0.4 |  |
| KEDYQIGGYSEDRHS | 0.3 | 0.5 | 0.5 | 0.4 |  |  | 0.1 | 0.5 |  |
| RTFRIAIWNLDVIIS |  |  |  |  | 0.3 | 0.4 |  |  | Binding of Control Serum Blood-Bank to Looped peptides of the protein X3 of SARS-CoV Urbani [1]: 0.9; Binding of Control serum Blood-bank to linear peptides of the protein X3 of SARS-CoV Urbani [1]: 0.7; Binding of Control serum LUMC to linear peptides of the protein X3 of SARS-CoV Urbani [1]: 0.6; Binding of Control serum LUMC to looped peptides of the protein X3 of SARS-CoV Urbani [1]: 0.8 |
| FTLGSITAQPVKIDN | 1.6 | 0.5 | 0.6 | 1.2 |  |  | 0.7 | 0.8 |  |
| QPVKIDNASPASTVH | 0.6 | 0.6 | 0.6 | 0.6 |  |  | 0.1 | 0.4 |  |

Reference: patent US20070128217A1 (priority 2003, published 2007)
